Here are results for five compounds from patent EP3071301B1, “QUERCUS PLANT EXTRACT AS ACTIVE AGENT WITH SKIN ANTI-AGEING PROPERTIES AND COSMETIC COMPOSITIONS CONTAINING IT” (Charlois Cosmetiques, priority 2013, dated 2015).

In assay [1] the target is T1, hyaluronidase (EC 3.2.1.35) (Bos taurus, UniProt Q2YDK3).
T1 sequence (Q2YDK3 36-553): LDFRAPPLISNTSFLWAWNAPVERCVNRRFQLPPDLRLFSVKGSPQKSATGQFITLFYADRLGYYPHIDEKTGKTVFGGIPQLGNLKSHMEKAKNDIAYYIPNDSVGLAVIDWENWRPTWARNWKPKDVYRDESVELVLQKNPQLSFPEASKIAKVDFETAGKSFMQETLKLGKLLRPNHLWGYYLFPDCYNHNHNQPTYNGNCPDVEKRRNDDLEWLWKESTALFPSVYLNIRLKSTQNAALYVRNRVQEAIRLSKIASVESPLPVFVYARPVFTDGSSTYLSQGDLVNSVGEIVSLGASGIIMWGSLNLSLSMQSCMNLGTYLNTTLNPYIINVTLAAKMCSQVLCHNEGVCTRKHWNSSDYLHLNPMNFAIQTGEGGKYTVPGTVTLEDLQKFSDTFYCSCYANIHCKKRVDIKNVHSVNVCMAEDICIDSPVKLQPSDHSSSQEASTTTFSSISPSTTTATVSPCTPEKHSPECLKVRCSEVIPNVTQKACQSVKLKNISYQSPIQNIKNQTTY
In words: Hyaluronidase activity inhibition (Experiment A). The class given is biochemical. The text has this:
(§1) Le principe actif E2 conforme à l'invention est soumis au test suivant, à des concentrations de 0,1; 0,3; 0,5; 1; 3 % p/p (% en poids de principe actif à tester, par rapport au poids final de milieu contenant le principe actif).
Le substrat est l'acide hyaluronique, testé à 0,04 % en tampon phosphate de sodium.
L'enzyme est la hyaluronidase (EC 3.2.1.35) testée à 10 U/ml en tampon phosphate de sodium / chlorure de sodium / BSA.
Le principe actif selon l'invention et les témoins (vitamine C à 10 mg/l et palmitate d'ascorbyle à 200 µg/ml) sont mis en présence de la hyaluronidase et incubés pendant 10 min à 37 °C sous agitation. L'acide hyaluronique est ensuite ajouté et les mélanges réactionnels sont incubés à 37 °C pendant 2 h. Des conditions contrôles additionnelles sont réalisées en incubant le produit et le substrat en l'absence de l'enzyme, ou en incubant le produit seul correspondant à un contrôle interférence. La réaction enzymatique est ensuite stoppée par précipitation de l'acide hyaluronique avec une solution d'albumine de sérum bovin (BSA). L'absorption (DO) à 540 nm est mesurée à l'aide d'un lecteur de microplaques (ThermoMax, Molecular Devices).
(§2) Chaque expérience est tripliquée.
(§3) Les résultats sont exprimés en pourcentage d'activité de la hyaluronidase et en pourcentage d'inhibition de l'activité de la hyaluronidase. […]

Assay [2] deals with T2, hyaluronidase bovine (EC 3.2.1.35) (Bos taurus, UniProt Q2YDK3).
T2 sequence (Q2YDK3 36-553): T1 sequence (Q2YDK3 36-553)
Nature of the assay: Hyaluronidase enzymatic activity inhibition (Experiment B). It is filed as biochemical. As to the method: L'enzyme est la hyaluronidase bovine (EC 3.2.1.35), préparée tampon phosphate de sodium / chlorure de sodium / BSA, pH 7, et utilisée à 10 U/ml.
Le substrat est l'acide hyaluronique, préparé en tampon phosphate de sodium à pH 5,35 et testé à […].
Les principes actifs selon l'invention et la référence (acide 6-O-palmitoylascorbique, noté APA, testé à 300 µg/ml) sont mis en présence de la hyaluronidase et pré-incubés pendant 10 min à 37 °C sous agitation. L'acide hyaluronique est ensuite ajouté et les mélanges réactionnels sont incubés à 37 °C pendant 2 h. Des conditions contrôles sont réalisées en parallèle en incubant les principes actifs ou la référence en présence du substrat mais en absence de l'enzyme (Contrôle sans enzyme) ou en incubant les principes actifs ou la référence seuls (Contrôle interférence). Il est également réalisé un témoin en incubant l'enzyme seule (Témoin).
La réaction enzymatique est ensuite stoppée par précipitation de l'acide hyaluronique avec une solution tampon contenant de l'albumine de sérum bovin (BSA) à pH 3,75. […] L'activité est inversement proportionnelle à la valeur de DO mesurée.
as §2, §3

Assay [3] is described as follows: Hydrogen peroxide assay (Amplex Red Hydrogen Peroxide/Peroxidase kit). The following applies: hydrogen peroxide; 50 µM; 30 min.
Source text: as §1
L'essai est réalisé au moyen du kit de dosage Amplex® Red Hydrogen Peroxyde/Peroxydase Assay Kit (Molecular Probes®), dont le réactif 10-acétyl-3,7-dihydroxyphénoxazine est utilisé pour déterminer la quantité de peroxyde d'hydrogène présent. Le substrat non coloré réagit avec le peroxyde d'hydrogène (H2O2) dans un rapport stoechiométrique 1:1 pour produire de la résofurine hautement fluorescente. […]
Le principe actif selon l'invention et le BHA (3-tert-butyl-4-hydroxyanisole), en tant que témoin, à une concentration de 50 µM, sont incubés en présence d'H2O2, de réactif Amplex® Red et d'enzyme Horse Radish Peroxydase (HRP) pendant 30 min à température ambiante. Puis la fluorescence est mesurée, pour une longueur d'onde d'excitation de 540 nm et une longueur d'onde d'émission de 590 nm.
Des contrôles d'auto-fluorescence et d'absorption de fluorescence (quenching) sont aussi réalisés pour chaque concentration de principe actif selon l'invention et du témoin. Les contrôles d'absorption de fluorescence sont réalisés en incubant le peroxyde d'hydrogène (H2O2), le réactif Amplex® Redet l'enzyme HRP pendant 30 min. […]

A further assay has as its system MMP totales. In words: Total matrix metalloprotease (MMP) activity inhibition, fluorogenic peptide. The class given is biochemical, humains.
Source text: Le principe actif E2 conforme à l'invention est soumis au test suivant, à des concentrations de 1 et 3 % p/p, selon le protocole décrit dans la publication de Sim et al., 2007, Arch Pharm Res, 30(3): 290-298.
Les MMP totales (obtenues selon un protocole standard à partir de surnageants de fibroblastes dermiques humains normaux, irradiés avec des UVB (20 mJ/cm^2)) sont traitées par le mélange inflammatoire acétate de phorbol myristate (PMA) et facteur de nécrose tumorale (TNFα).
Le substrat fluorescent est le peptide fluorogénique décrit dans la publication de Lee et al., 1999, Annals of the New York Academy of Sciences, 878: 635-637, et commercialisé sous la référence M6412 par la société Sigma-Aldrich.
Le principe actif E2 conforme à l'invention ou le témoin (O-phénantroline testée à 0,03; 0,1; 0,3 et 1 mM) sont préincubés pendant 10 min sur glace en présence des MMP totales activées, puis le substrat fluorescent est ajouté. Les plaques ont été incubées pendant 3h à 37°C. Un contrôle d'interférence du composé (composé en présence du mélange réactionnel sans enzyme) et un contrôle « quenching » (mélange réactionnel contenant le substrat et l'enzyme dans lequel le composé n'est ajouté qu'en fin d'incubation) ont été réalisés en parallèle. Le contrôle […] permet de vérifier l'absorption non spécifique de la fluorescence par le composé et donc la spécificité de l'inhibition observée dans la condition test correspondante.
as §2
A la fin de l'incubation, la fluorescence produite suite à la dégradation du substrat est mesurée par fluorimétrie pour une longueur d'onde d'excitation de 328 nm et une longueur d'onde d'émission de 393 nm, au moyen du dispositif SpectroMax Gemini, Molecular Devices.
Le % d'inhibition des MMPs totales est calculé pour chaque échantillon testé. Les résultats obtenus sont montrés dans le tableau 6 ci-après. Tableau 6 - Inhibition de l'activité des MMP totales par le principe actif E2 conforme à l'invention

On to `CCCCCCCCCCCCCCCC(=O)OC[C@H](O)[C@H]1OC(=O)C(O)=C1O` [Palmitate d'ascorbyle, palmitate d'ascorbyle], for which the inhibition (as a rule, the drop in the measured response relative to a control, in per cent) at 200 µg/mL in assay [1] (200 µg/ml) turned out to be 80%.

In assay [2], `CCCCCCCCCCCCCCCC(=O)OC[C@H](O)[C@H]1OC(=O)C(O)=C1O` [APA, acide 6-O-palmitoylascorbique] had an inhibition at 300 µg/mL of 79%. Further, the activity at 300 µg/mL in assay [2] (read-out: Activité hyaluronidase (%)) came to 21%.

With `COc1ccc(O)c(C(C)(C)C)c1` [BHA, 3-tert-butyl-4-hydroxyanisole], in assay [3], the % inhibition (as a rule, the change of the read-out against control, counted positive when it falls) is listed as 60%.

With `c1cnc2c(c1)ccc1cccnc12` [O-Phénanthroline], the “% inhibition” value is listed as 15% in the assay with MMP totales (0,1 mM, 100 µM); 1% in the assay on MMP totales (0,03 mM, 30 µM); 73% with MMP totales (0,3 mM, 300 µM); 97% with MMP totales (1 mM).

Consider `O=C1O[C@H]([C@@H](O)CO)C(O)=C1O` [Vitamine C], for which 10000 µg/mL produced 71% inhibition in assay [1] (10 mg/ml).
